Source: patent US10231954B2, “Neurodegenerative therapies” (LYTIX BIOPHARMA AS, priority 2014, dated 2019)
Read-outs that look alike come from different tables or passages of the source.

Tests used:
Type in all cases: biochemical
NEK6 = NEK6 (Homo sapiens, UniProt Q9HC98); experiment: Kinase profiling NEK6; conditions: for remaining activity at 100 µM: read-out: residual kinase activity, NEK6
Description: (§1) Any value less that 25 is considered to be highly significant inhibition.

ERK2 = ERK2 (Homo sapiens, UniProt P28482); experiment: Kinase profiling ERK2; conditions: for remaining activity at 100 µM: read-out: residual kinase activity, ERK2
Sequence of ERK2 (P28482 whole entry, species assumed): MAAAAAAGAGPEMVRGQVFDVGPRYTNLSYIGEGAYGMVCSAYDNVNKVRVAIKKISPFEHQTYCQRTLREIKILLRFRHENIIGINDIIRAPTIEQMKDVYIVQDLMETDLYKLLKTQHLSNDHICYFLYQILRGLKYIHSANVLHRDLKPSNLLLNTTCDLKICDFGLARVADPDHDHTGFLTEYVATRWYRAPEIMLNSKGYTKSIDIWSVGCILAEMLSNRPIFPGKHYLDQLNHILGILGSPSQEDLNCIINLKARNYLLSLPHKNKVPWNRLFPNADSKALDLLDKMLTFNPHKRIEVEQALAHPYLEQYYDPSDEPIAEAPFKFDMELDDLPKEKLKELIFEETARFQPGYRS
Description: as §1

ROCK 2 = ROCK 2 (Homo sapiens, UniProt O75116); experiment: Kinase profiling ROCK 2; conditions: for remaining activity at 100 µM: read-out: residual kinase activity, ROCK 2
Sequence of ROCK 2 (O75116 whole entry, species assumed): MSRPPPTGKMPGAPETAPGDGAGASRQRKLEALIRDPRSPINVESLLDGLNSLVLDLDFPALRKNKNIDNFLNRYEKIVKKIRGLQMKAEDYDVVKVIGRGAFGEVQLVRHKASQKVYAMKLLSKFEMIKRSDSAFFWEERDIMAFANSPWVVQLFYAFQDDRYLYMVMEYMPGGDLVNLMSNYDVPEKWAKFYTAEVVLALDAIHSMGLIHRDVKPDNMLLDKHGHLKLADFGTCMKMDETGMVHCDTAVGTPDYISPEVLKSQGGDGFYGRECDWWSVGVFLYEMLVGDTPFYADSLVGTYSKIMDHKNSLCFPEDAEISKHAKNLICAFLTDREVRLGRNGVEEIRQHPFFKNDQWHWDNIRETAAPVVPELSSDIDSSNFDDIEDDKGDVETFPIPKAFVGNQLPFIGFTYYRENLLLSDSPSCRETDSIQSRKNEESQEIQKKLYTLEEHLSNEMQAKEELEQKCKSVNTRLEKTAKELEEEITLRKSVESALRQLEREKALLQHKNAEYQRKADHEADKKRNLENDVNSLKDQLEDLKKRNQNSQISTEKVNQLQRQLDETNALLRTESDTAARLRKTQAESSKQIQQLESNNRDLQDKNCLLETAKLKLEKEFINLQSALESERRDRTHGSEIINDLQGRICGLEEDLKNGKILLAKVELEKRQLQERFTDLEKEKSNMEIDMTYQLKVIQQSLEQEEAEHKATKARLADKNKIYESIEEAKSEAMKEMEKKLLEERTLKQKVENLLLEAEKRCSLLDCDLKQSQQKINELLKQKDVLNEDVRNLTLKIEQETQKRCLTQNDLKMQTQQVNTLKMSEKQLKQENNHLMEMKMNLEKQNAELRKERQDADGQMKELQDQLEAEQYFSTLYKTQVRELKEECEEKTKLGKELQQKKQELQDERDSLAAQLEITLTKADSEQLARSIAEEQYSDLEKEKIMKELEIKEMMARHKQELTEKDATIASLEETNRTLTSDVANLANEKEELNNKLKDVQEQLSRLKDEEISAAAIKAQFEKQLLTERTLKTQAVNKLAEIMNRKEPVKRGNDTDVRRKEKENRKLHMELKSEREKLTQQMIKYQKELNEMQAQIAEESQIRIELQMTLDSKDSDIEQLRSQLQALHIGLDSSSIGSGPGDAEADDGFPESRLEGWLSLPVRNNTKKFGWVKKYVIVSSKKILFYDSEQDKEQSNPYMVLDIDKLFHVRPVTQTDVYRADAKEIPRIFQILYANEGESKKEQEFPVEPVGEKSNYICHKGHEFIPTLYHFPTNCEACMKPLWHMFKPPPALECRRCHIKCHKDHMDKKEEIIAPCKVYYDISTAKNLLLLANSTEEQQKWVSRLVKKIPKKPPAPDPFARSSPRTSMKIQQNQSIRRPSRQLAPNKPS
Description: as §1

LKB1 = target: T1, LKB1 (Homo sapiens, UniProt Q15831); experiment: Kinase profiling LKB1; conditions: for remaining activity at 100 µM: read-out: residual kinase activity, LKB1
T1 sequence (Q15831 1-433): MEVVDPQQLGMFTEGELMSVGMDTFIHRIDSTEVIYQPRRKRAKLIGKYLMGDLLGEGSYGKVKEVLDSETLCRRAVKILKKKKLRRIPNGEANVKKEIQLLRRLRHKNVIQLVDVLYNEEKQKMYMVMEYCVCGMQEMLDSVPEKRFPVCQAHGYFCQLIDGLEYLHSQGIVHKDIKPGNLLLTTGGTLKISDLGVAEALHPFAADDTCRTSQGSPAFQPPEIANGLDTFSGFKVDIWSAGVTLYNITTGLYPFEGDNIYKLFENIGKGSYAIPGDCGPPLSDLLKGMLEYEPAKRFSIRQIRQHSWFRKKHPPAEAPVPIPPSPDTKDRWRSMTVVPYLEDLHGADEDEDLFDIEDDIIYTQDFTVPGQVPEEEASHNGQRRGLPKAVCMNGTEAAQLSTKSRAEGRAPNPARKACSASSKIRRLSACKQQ
T1 sequence (Q7RTN6 1-431 partner): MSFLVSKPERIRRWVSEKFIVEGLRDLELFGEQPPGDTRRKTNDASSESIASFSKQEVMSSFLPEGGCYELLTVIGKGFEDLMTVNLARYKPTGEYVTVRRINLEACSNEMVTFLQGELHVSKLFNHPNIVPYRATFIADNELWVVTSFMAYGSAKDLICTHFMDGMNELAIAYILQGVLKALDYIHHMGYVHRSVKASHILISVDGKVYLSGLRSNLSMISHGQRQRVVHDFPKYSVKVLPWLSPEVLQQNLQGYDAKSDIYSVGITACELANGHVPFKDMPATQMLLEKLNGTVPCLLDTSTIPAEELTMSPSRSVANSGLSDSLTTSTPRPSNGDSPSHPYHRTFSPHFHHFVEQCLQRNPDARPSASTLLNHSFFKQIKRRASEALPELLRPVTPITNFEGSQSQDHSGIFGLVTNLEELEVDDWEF
T1 sequence (Q9Y376 1-341 partner): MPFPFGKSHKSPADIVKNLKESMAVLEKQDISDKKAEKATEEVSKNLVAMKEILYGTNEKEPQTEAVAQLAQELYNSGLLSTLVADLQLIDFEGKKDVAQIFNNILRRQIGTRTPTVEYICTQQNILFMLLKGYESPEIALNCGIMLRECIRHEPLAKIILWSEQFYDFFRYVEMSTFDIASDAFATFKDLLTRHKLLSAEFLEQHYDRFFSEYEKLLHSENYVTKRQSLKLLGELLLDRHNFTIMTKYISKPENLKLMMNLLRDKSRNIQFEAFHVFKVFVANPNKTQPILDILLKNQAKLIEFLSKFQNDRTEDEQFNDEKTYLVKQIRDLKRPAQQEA
Description: as §1

RSK2 = RSK2 (Homo sapiens, UniProt P51812); experiment: Kinase profiling RSK2; conditions: for remaining activity at 100 µM: read-out: residual kinase activity, RSK2
Description: as §1

PAK4 = PAK4 (Homo sapiens, UniProt O96013); experiment: Kinase profiling PAK4; conditions: for remaining activity at 100 µM: read-out: residual kinase activity, PAK4
Sequence of PAK4 (O96013 whole entry, species assumed): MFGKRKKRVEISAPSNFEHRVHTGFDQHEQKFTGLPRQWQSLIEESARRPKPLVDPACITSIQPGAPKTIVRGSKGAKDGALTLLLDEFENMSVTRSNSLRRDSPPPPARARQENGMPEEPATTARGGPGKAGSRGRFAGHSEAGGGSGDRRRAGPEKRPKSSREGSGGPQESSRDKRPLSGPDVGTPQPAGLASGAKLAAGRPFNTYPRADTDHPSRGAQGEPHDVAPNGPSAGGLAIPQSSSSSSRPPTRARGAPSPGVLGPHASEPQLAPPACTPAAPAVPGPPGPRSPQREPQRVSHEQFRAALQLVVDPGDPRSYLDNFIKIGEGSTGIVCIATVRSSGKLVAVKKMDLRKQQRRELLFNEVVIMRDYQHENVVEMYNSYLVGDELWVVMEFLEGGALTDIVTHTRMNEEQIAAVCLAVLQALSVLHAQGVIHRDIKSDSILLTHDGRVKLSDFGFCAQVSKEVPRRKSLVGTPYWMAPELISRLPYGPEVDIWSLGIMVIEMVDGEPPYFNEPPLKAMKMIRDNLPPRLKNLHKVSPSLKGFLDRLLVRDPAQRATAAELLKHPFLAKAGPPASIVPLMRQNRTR
Description: as §1

p38b MAPK = p38b MAPK (Homo sapiens, UniProt Q15759); experiment: Kinase profiling p38b MAPK; conditions: for remaining activity at 100 µM: read-out: residual kinase activity, p38b MAPK
Sequence of p38b MAPK (Q15759 whole entry): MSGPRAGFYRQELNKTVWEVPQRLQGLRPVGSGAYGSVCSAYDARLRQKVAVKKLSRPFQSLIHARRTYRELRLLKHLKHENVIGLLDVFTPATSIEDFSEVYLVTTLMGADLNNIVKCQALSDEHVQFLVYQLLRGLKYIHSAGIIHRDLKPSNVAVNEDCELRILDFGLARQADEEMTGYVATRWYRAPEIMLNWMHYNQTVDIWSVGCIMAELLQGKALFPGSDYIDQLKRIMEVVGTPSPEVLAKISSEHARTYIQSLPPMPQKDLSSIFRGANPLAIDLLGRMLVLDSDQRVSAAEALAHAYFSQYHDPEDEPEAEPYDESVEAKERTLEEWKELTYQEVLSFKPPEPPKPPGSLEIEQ
Description: as §1

PKD1 = target: T2, PKD1 (Homo sapiens, UniProt Q15139); experiment: Kinase profiling PKD1; conditions: for remaining activity at 100 µM: read-out: residual kinase activity, PKD1
T2 sequence (Q15139 1-912): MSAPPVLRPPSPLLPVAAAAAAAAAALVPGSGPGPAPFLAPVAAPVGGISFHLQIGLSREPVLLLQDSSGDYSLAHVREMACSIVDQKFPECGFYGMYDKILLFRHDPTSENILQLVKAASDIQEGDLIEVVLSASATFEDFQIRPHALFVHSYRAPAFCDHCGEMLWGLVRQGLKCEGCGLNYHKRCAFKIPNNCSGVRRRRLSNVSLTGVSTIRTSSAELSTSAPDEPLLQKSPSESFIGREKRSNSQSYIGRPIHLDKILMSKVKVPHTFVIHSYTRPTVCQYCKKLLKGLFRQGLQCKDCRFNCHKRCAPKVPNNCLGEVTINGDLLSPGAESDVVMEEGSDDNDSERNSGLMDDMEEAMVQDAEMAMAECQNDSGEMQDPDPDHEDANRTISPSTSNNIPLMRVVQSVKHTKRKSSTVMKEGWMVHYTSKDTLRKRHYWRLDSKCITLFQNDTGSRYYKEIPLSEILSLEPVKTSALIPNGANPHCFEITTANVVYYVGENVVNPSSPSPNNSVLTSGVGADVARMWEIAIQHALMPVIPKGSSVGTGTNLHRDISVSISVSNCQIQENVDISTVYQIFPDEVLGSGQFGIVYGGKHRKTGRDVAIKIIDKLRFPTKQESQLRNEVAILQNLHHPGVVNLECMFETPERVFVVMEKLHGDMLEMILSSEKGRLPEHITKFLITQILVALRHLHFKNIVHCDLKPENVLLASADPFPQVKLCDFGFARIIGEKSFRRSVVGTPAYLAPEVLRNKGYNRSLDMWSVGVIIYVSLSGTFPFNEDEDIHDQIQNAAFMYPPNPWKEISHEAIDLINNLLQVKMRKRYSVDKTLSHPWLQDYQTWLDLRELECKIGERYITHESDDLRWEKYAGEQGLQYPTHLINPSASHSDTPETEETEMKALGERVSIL
Description: as §1

PIM1 = PIM1 (Homo sapiens, UniProt P11309); experiment: Kinase profiling PIM1; conditions: for remaining activity at 100 µM: read-out: residual kinase activity, PIM1
Sequence of PIM1 (P11309 whole entry, species assumed): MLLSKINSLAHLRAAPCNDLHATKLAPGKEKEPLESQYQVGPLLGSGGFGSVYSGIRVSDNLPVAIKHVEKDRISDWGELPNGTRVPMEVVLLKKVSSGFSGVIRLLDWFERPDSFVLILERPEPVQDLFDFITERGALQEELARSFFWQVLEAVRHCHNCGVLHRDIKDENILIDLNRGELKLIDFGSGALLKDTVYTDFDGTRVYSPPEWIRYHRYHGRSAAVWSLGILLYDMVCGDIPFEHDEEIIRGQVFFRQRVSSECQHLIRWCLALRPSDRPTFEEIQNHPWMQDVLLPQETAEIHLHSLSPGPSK
Description: as §1

JNK3 = JNK3 (Homo sapiens, UniProt P53779); experiment: Kinase profiling JNK3; conditions: for remaining activity at 100 µM: read-out: residual kinase activity, JNK3
Sequence of JNK3 (P53779 whole entry, species assumed): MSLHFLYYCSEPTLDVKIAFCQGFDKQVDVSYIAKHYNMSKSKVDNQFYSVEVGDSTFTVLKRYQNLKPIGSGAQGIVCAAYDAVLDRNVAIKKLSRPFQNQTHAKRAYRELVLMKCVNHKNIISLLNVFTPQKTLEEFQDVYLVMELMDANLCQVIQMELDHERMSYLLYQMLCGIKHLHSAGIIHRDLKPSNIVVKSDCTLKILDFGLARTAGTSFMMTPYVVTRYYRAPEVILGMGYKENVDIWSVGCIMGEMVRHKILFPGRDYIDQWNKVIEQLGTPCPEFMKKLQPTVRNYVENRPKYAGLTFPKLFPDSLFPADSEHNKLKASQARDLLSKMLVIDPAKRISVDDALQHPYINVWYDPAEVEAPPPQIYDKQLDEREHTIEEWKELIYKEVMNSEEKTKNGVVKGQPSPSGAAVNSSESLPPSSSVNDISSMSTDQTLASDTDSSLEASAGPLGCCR
Description: as §1

JNK1 = JNK1 (Homo sapiens, UniProt P45983); experiment: Kinase profiling JNK1; conditions: for remaining activity at 100 µM: read-out: residual kinase activity, JNK1
Sequence of JNK1 (P45983 whole entry, species assumed): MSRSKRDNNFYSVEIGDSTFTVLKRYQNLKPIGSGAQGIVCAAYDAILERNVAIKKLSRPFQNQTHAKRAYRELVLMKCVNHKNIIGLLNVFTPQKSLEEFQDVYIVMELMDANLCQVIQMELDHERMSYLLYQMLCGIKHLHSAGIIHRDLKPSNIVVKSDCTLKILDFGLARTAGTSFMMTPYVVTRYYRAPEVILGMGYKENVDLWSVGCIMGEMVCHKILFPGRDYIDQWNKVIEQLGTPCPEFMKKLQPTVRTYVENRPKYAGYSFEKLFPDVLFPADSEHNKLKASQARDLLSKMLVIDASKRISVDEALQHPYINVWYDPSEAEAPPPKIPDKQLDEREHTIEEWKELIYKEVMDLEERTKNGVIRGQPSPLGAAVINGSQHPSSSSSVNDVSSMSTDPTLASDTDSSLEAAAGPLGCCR
Description: as §1

CK2 = experiment: Kinase profiling CK2
Description: as §1

PKCa = PKCa (Homo sapiens, UniProt P17252); experiment: Kinase profiling PKCa; conditions: for remaining activity at 100 µM: read-out: residual kinase activity, PKCa
Description: as §1

[1] = 100 micromolar inhibitor concentration, 100 is no change
[2] = 100 micromolar inhibitor, 100 = no change

Sequence of NEK6 (Q9HC98 whole entry, species assumed): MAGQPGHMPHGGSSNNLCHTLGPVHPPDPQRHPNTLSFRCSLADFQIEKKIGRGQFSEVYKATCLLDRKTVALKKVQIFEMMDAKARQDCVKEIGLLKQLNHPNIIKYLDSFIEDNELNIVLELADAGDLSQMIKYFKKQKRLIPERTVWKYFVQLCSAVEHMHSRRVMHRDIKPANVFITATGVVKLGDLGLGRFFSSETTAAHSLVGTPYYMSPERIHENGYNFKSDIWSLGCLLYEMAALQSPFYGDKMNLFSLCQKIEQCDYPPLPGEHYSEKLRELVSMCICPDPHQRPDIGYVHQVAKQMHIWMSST

CC(=O)Nc1nc2cc(F)ccc2s1 [Compound 03-77]
remaining activity at 100 µM (NEK6; [1]): 96% | remaining activity at 100 µM (ERK2; [1]): 99% | remaining activity at 100 µM (ROCK 2; [1]): 37% | remaining activity at 100 µM (LKB1; [1]): 85% | remaining activity at 100 µM (RSK2; [1]): 83% | remaining activity at 100 µM (PAK4; [1]): 97% | remaining activity at 100 µM (p38b MAPK; [1]): 79% | remaining activity at 100 µM (PKD1; [1]): 66% | remaining activity at 100 µM (PIM1; [1]): 19% | remaining activity at 100 µM (JNK3; [1]): 68% | remaining activity at 100 µM (JNK1; [1]): 80% | residual kinase activity, CK2 (CK2; [1]): 81 | remaining activity at 100 µM (PKCa; [1]): 101%

CC(=O)Nc1nc2cc(C)ccc2s1 [Compound 03-76]
residual kinase activity, NEK6 (NEK6; [1]): 107 | residual kinase activity, ERK2 (ERK2; [1]): 96 | residual kinase activity, ROCK 2 (ROCK 2; [1]): 79 | residual kinase activity, LKB1 (LKB1; [1]): 96 | residual kinase activity, RSK2 (RSK2; [1]): 96 | residual kinase activity, PAK4 (PAK4; [1]): 101 | residual kinase activity, p38b MAPK (p38b MAPK; [1]): 83 | residual kinase activity, PKD1 (PKD1; [1]): 89 | residual kinase activity, PIM1 (PIM1; [1]): 21 | residual kinase activity, JNK3 (JNK3; [1]): 76 | residual kinase activity, JNK1 (JNK1; [1]): 97 | residual kinase activity, CK2 (CK2; [1]): 75 | residual kinase activity, PKCa (PKCa; [1]): 94

O=C(Nc1nc2ccc(O)cc2s1)c1cccnc1 [Compound 08-44]
residual kinase activity, NEK6 (NEK6; [1]): 84 | residual kinase activity, ERK2 (ERK2; [1]): 75 | residual kinase activity, ROCK 2 (ROCK 2; [1]): 42 | residual kinase activity, LKB1 (LKB1; [1]): 45 | residual kinase activity, RSK2 (RSK2; [1]): 56 | residual kinase activity, PAK4 (PAK4; [1]): 64 | residual kinase activity, p38b MAPK (p38b MAPK; [1]): 89 | residual kinase activity, PKD1 (PKD1; [1]): 54 | residual kinase activity, PIM1 (PIM1; [1]): 42 | residual kinase activity, JNK3 (JNK3; [1]): 64 | residual kinase activity, JNK1 (JNK1; [1]): 102 | residual kinase activity, CK2 (CK2; [1]): 19 | residual kinase activity, PKCa (PKCa; [1]): 67

O=C(Nc1nc2ccc(O)cc2s1)c1ccccn1 [Compound 03-12]
residual kinase activity, NEK6 (NEK6; [1]): 98 | residual kinase activity, ERK2 (ERK2; [1]): 88 | residual kinase activity, ROCK 2 (ROCK 2; [1]): 68 | residual kinase activity, LKB1 (LKB1; [1]): 64 | residual kinase activity, RSK2 (RSK2; [1]): 53 | residual kinase activity, PAK4 (PAK4; [1]): 87 | residual kinase activity, p38b MAPK (p38b MAPK; [1]): 105 | residual kinase activity, PKD1 (PKD1; [1]): 70 | residual kinase activity, PIM1 (PIM1; [1]): 51 | residual kinase activity, JNK3 (JNK3; [1]): 70 | residual kinase activity, JNK1 (JNK1; [1]): 105 | residual kinase activity, CK2 (CK2; [1]): 57 | residual kinase activity, PKCa (PKCa; [1]): 101

CC(=O)Nc1nc2ccccc2s1 [Compound 03-32]
residual kinase activity, NEK6 (NEK6; [1]): 92 | residual kinase activity, ERK2 (ERK2; [1]): 149 | residual kinase activity, ROCK 2 (ROCK 2; [1]): 91 | residual kinase activity, LKB1 (LKB1; [1]): 97 | residual kinase activity, RSK2 (RSK2; [1]): 105 | residual kinase activity, PAK4 (PAK4; [1]): 75 | residual kinase activity, p38b MAPK (p38b MAPK; [1]): 107 | residual kinase activity, PKD1 (PKD1; [1]): 105 | residual kinase activity, PIM1 (PIM1; [1]): 79 | residual kinase activity, JNK3 (JNK3; [1]): 66 | residual kinase activity, JNK1 (JNK1; [1]): 97 | residual kinase activity, CK2 (CK2; [1]): 96 | residual kinase activity, PKCa (PKCa; [1]): 104

CC(=O)Nc1nc2cc(C(F)(F)F)ccc2s1 [Compound 03-73]
remaining activity at 100 µM (NEK6; [1]): 119% | remaining activity at 100 µM (ERK2; [1]): 108% | remaining activity at 100 µM (ROCK 2; [1]): 83% | remaining activity at 100 µM (LKB1; [1]): 98% | remaining activity at 100 µM (RSK2; [1]): 83% | remaining activity at 100 µM (PAK4; [1]): 71% | remaining activity at 100 µM (p38b MAPK; [1]): 97% | remaining activity at 100 µM (PKD1; [1]): 83% | remaining activity at 100 µM (PIM1; [1]): 10% | remaining activity at 100 µM (JNK3; [1]): 83% | remaining activity at 100 µM (JNK1; [1]): 120% | residual kinase activity, CK2 (CK2; [1]): 105 | remaining activity at 100 µM (PKCa; [1]): 111%

CC(=O)Nc1cccc(NC(=O)c2nc3ccc(O)cc3s2)c1 [Compound 03-07, N-(3-acetamidophenyl)-6-hydroxybenzo[d]thiazole-2-carboxamide]
remaining activity at 100 µM (NEK6; [2]): 91% | remaining activity at 100 µM (ERK2; [2]): 96% | remaining activity at 100 µM (ROCK 2; [2]): 27% | remaining activity at 100 µM (LKB1; [2]): 83% | remaining activity at 100 µM (RSK2; [2]): 71% | remaining activity at 100 µM (PAK4; [2]): 92% | remaining activity at 100 µM (p38b MAPK; [2]): 96% | remaining activity at 100 µM (PKD1; [2]): 61% | remaining activity at 100 µM (PIM1; [2]): 25% | remaining activity at 100 µM (JNK3; [2]): 50% | remaining activity at 100 µM (JNK1; [2]): 103% | residual kinase activity, CK2 (CK2; [2]): 35 | remaining activity at 100 µM (PKCa; [2]): 81%

O=C(Nc1nc2cc(O)ccc2s1)c1cccnc1 [Compound 03-33]
residual kinase activity, NEK6 (NEK6; [1]): 107 | residual kinase activity, ERK2 (ERK2; [1]): 107 | residual kinase activity, ROCK 2 (ROCK 2; [1]): 53 | residual kinase activity, LKB1 (LKB1; [1]): 83 | residual kinase activity, RSK2 (RSK2; [1]): 85 | residual kinase activity, PAK4 (PAK4; [1]): 92 | residual kinase activity, p38b MAPK (p38b MAPK; [1]): 87 | residual kinase activity, PKD1 (PKD1; [1]): 71 | residual kinase activity, PIM1 (PIM1; [1]): 25 | residual kinase activity, JNK3 (JNK3; [1]): 76 | residual kinase activity, JNK1 (JNK1; [1]): 111 | residual kinase activity, CK2 (CK2; [1]): 88 | residual kinase activity, PKCa (PKCa; [1]): 105
